Columns and labels:
[1] = test system: Male Sprauge-Dawley rats, partial sciatic nerve ligation (PSNI model); test: Thermal hyperalgesia (plantar test, hind paw withdrawal latency) in the partial sciatic nerve ligation (PSNI/PSNL) model; assay type: in vivo, rat
From the text: Male Sprauge-Dawley rats (200-600 g) were used in all the experiments. The rats were permitted to acclimate 1 week before use in the experiments. The rats were marked with a speed marker on their tails and normally kept in groups of 2-3 per cage pre- and postoperatively. They were housed in clear plastic cages with solid floors covered with sawdust in a normal day/night cycle. Water and food were supplied ad libitum.
The method of partial sciatic nerve injury is developed by Seltzer. Before surgery, the rats were shaved and washed with iodine solution (Iobac vet.) on the surgical area. The left sciatic nerve was exposed at high-thigh level by making a 2-3 cm incision in the skin. The skin was then freed from the connective tissue surrounding the incision in order to assure free movement of the leg after skin stapling. Using blunt dissection through the biceps femoris, the nerve was exposed and carefully freed from surrounding connective tissue at a site near the trochanter just below the point at which the posterior biceps semitendinosus nerve branches off the common sciatic nerve. Using a small pincette slid under the nerve, the nerve was gently lifted up and fixed. An 8/0 Ethilon suture was inserted into the nerve and tightly ligated so that the dorsal 1/3-1/2 of the nerve thickness was trapped in the ligature. The muscle was closed with 2-3 muscle sutures (4/0 vicryl), and the skin closed with 3-4 skin staples.
Plantar test (Ugo Basile) was used in this study to asses the nociceptive response.
The rats were placed in the clear plastic chamber (18 cm×29 cm×12.5 cm) allowed to acclimate to the new environment for about 5 min. Before testing. During this time period the rat was showing exploratory behaviour e.g. standing on its hind leg. When the rat had been acclimated, it stood quietly with occasional bouts of grooming. The radiant heat score beneath the class floor was pointed at the planter hind paw with help from the white sight marks engraved on the top of the I.R vessel.
The infrared (IR) source was then started and the withdrawal latency recorded.
When the rat felt pain and withdrew its paw, the sudden drop in radiation led to a automatic stop of the IR source and the time counter and the withdrawal latency could be determined to the nearest 0.1 sec.
The withdrawal latency was every time tested 5 times with intervals of 5 min. The average of the 5 measurements were then used as the withdrawal latency of the specific rat.
Rats, which were undergoing PSNL, were only tested on the operated left leg. 3 consecutive days before the operation, the withdrawal latency of the left leg was measured using the average of the 3 days as the basic withdrawal latency. The rat was then tested postoperatively for more days.
The difference score, expressed as percent reduction from the basic level to the postoperative level measurement, was used as an index for hyperalgesia: [formula] (pom: postoperative measurement)
Group averages appear with the standard error of the mean. The significance level of difference between means of various groups at certain postoperative times was examined by Student's t-test. The difference between the same group but at different days was examined by ANOVA.

[2] = test system: rats with sciatic nerve constriction injury (CCI); settings: spinal administration prior to CCI; cited from earlier work
[3] = Soluble expression of TNF-α variants in E. coli; assay type: physicochemical
From the text: Insertion of the PADRE epitope (SEQ ID NO: 4) into loop 3 in position Gly108-Ala109 is a promising approach to prepare TNF-α variants with a structure closely resembling the native TNF-α molecule. It has been deduced from the TNF-α crystal structure that a TH epitope inserted directly into this position will not have any neighbouring amino acid residues in close proximity to interact with.

[4] = bacterial host cells grown at 37° C.

In the case of Clc1cccc(Cl)c1N=C1NCCN1 [clonidine], the “difference score in percent between the basic level and the postoperative measurement” value ([1]; clonidine 0.6 mg/kg once at day 4 postoperatively after testing, day 5) is listed as −0.2±8.5%, the “difference score in percent between the basic level and the postoperative measurement” value ([1]; clonidine 0.6 mg/kg orally started 2 hours pre PSNI, repeated to day 2, day 2) is listed as 2.6±3.1% and the “delay in onset of thermal hyperestesia compared to control groups” value [2] is listed as 3 days.

For “TNF_T0: three TNFα monomers linked by two GlyGlyGly linkers; SEQ ID NO: 22 in PCT/DK02/00764”, the “expression form in E. coli / bacterial cells” value [3] was “soluble protein”.

With infliximab the “difference score (basic level vs postoperative withdrawal latency) versus saline control” value ([1]; infliximab 5 mg/kg i.v. 2 hours prior to PSNL, days 2, 4, 6 and 7 postoperatively) was “No significant differences”, the “difference score in percent between the basic level and the postoperative measurement” value ([1]; infliximab 5 μl (10 mg/ml) icv at days 2, 3 and 4, day 3) was 39.2±5.6% and the “difference score in percent between the basic level and the postoperative measurement” value ([1]; infliximab 5 μl (10 mg/ml) icv at days 2, 3 and 4, day 4) was 43.4±3.8%. For the same molecule, the “difference score in percent between the basic level and the postoperative measurement” value ([1]; infliximab 5 μl (10 mg/ml) icv at days 2, 3 and 4, day 6) was 47.2±4.0%, the “difference score in percent between the basic level and the postoperative measurement” value ([1]; infliximab 5 μl (10 mg/ml) icv at days 2, 3 and 4, day 8) was 30.6±6.1% and the “nociceptive threshold compared to the control group” value ([1]; infliximab 5 μl (10 mg/ml) icv at days 2, 3 and 4 postoperatively) was “no significant difference”. The “difference score in percent between the basic level and the postoperative measurement” value ([1]; infliximab 5 μl (10 mg/ml) icv at days 2, 3 and 4 postoperatively, day 2) was 41.3±4.4%, the “difference score in percent between the basic level and the postoperative measurement” value ([1]; infliximab (10 mg/ml) icv continuously 0.5 μl/h by osmotic pump started day 3 preoperatively, day 2) was 34.2±5.4% and the “difference score in percent between the basic level and the postoperative measurement” value ([1]; infliximab (10 mg/ml) icv continuously 0.5 μl/h started day 3 preoperatively, day 4) was 34.6±5.4%. For the same molecule, the “difference score in percent between the basic level and the postoperative measurement” value ([1]; infliximab (10 mg/ml) icv continuously 0.5 μl/h started day 3 preoperatively, day 6) was 30.3±8.2% and the “difference score in percent between the basic level and the postoperative measurement” value ([1]; infliximab (10 mg/ml) icv continuously 0.5 μl/h started day 3 preoperatively, day 8) was 27.5±5.2%.

With O=C1CCC(N2C(=O)c3ccccc3C2=O)C(=O)N1 (stereo not shown) [thalidomide] the “difference score in percent between the basic level and the postoperative measurement” value ([1]; thalidomide 50 mg/kg orally daily from 2 h pre-operation, day 2) was 33.3±4.1%, the “difference score in percent between the basic level and the postoperative measurement” value ([1]; thalidomide 50 mg/kg orally daily, day 4) was 33.9±5.9% and the “difference score in percent between the basic level and the postoperative measurement” value ([1]; thalidomide 50 mg/kg orally daily, day 6) was 40.5±3.2%. For the same molecule, the “difference score in percent between the basic level and the postoperative measurement” value ([1]; thalidomide 50 mg/kg orally daily, day 8) was 41.3±3.4%, the “difference score in percent between the basic level and the postoperative measurement” value ([1]; thalidomide 50 mg/kg orally daily, day 10) was 30.6±5.3% and the “difference score in percent between the basic level and the postoperative measurement” value ([1]; thalidomide 100 mg/kg orally daily from 2 h pre-operation, day 2) was 22.0±7.2%. The “difference score in percent between the basic level and the postoperative measurement” value ([1]; thalidomide 100 mg/kg orally daily, day 4) was 32.4±6.4%, the “difference score in percent between the basic level and the postoperative measurement” value ([1]; thalidomide 100 mg/kg orally daily, day 6) was 38.0±4.1% and the “difference score in percent between the basic level and the postoperative measurement” value ([1]; thalidomide 100 mg/kg orally daily, day 8) was 34.1±5.4%. For the same molecule, the “difference score in percent between the basic level and the postoperative measurement” value ([1]; thalidomide 100 mg/kg orally daily, day 10) was 29.8±4.6%.

B1: TNF34: human TNF-α variant, PADRE epitope inserted into loop 3 at Gly108-Ala109; SEQ ID NO: 18 in PCT/DK02/00764 (protein)
chain: VRSSSRTPSDKPVAHVVANPQAEGQLQWLNRRANALLANGVELRDNQLVVPSEGLYLIYSQVLFKGQGCPSTHVLLTHTISRIAVSYQTKVNLLSAIKSPCQRETPEGAKFVAAWTLKAAAAEAKPWYEPIYLGGVFQLEKGDRLSAEINRPDYLDFAESGQVYFGIIAL
modifications: hTNF with inserted PADRE
With B1 the “fraction expressed as inclusion bodies” value [3, 4] was 95%, the “fraction of the expressed protein soluble in E. coli” value [3, 4] was “approximately 5%” and the “yield of soluble protein from the fermentation” value ([3]; fermentation temperature 25° C.) was roughly 100%.
